This note sets out measurements from ChEMBL document CHEMBL1131921, “Diamino benzo[b]thiophene derivatives as a novel class of active site directed thrombin inhibitors: 3. Enhancing activity by imposing conformational restriction in the C-4" side chain” (Bioorg Med Chem Lett, 1999).

This assay deals with Prothrombin (Homo sapiens) (UniProt P00734). Nature of the assay: Binding affinity for human Prothrombin as apparent association constant (Kass).
Turning to `CC(COc1ccc(Cc2c(-c3ccc(OCCN4CCCC4)cc3)sc3ccccc23)cc1)N1CCCC1` (configuration not stated), the K ass was 7.34e+06 l M-1. Consider `C(=C\c1ccc(Cc2c(-c3ccc(OCCN4CCCC4)cc3)sc3ccccc23)cc1)/CN1CCCC1` (stereo in doubt; trans), for which the K ass is 1.32e+07 l M-1. For `CC(C)(COc1ccc(Cc2c(-c3ccc(OCCN4CCCC4)cc3)sc3ccccc23)cc1)N1CCCC1`, the K ass is 4.69e+06 l M-1. The value for `C(#Cc1ccc(Cc2c(-c3ccc(OCCN4CCCC4)cc3)sc3ccccc23)cc1)CN1CCCC1` was 4.84e+06 l M-1; that for `C[C@H](COc1ccc(Cc2c(-c3ccc(OCCN4CCCC4)cc3)sc3ccccc23)cc1)N1CCCC1` was 4.17e+06 l M-1; that for `C(=C\c1ccc(Cc2c(-c3ccc(OCCN4CCCC4)cc3)sc3ccccc23)cc1)/CN1CCCC1` (stereo in doubt; cis) was 9.8e+06 l M-1.

Consider `CCC(CN1CCCC1)Oc1ccc(Cc2c(-c3ccc(OCCN4CCCC4)cc3)sc3ccccc23)cc1` (configuration not stated), for which the K ass is 1.23e+07 l M-1. Consider `C[C@@H](COc1ccc(Cc2c(-c3ccc(OCCN4CCCC4)cc3)sc3ccccc23)cc1)N1CCCC1`, for which the K ass was 9.07e+06 l M-1.

In the case of `c1ccc2c(Cc3ccc(O[C@@H]4CCCC[C@H]4N4CCCC4)cc3)c(-c3ccc(OCCN4CCCC4)cc3)sc2c1`, the K ass is 2.4e+07 l M-1.

As for `c1ccc2c(Cc3ccc(O[C@@H]4CCC[C@H]4N4CCCC4)cc3)c(-c3ccc(OCCN4CCCC4)cc3)sc2c1`, the K ass is 2.74e+07 l M-1. `CCC(COc1ccc(Cc2c(-c3ccc(OCCN4CCCC4)cc3)sc3ccccc23)cc1)N1CCCC1` (configuration not stated): the K ass was 2.81e+07 l M-1. Take `c1ccc2c(Cc3ccc(CCCN4CCCC4)cc3)c(-c3ccc(OCCN4CCCC4)cc3)sc2c1`: the K ass is 6.7e+06 l M-1.
